Where “and” joins values, the source holds several entries; their conditions need not be identical. Identical values can stand only once. Like-named read-outs stand apart in the source and are kept apart here.
What was measured:
[1] = test system: SARS-CoV-2 replicon; assay: microbe, parasite or virus in culture; format: cell-based; conditions: for IC50: Severe acute respiratory syndrome coronavirus 2, dose-response curves of FIGS. 6A-6B, read-out: IC50, replicon assay, compound alone
[2] = target: recombinant SARS-Cov-2 M^pro (Severe acute respiratory syndrome coronavirus 2 (2019-nCoV) (SARS-CoV-2), UniProt P0DTD1); assay: biochemical
[3] = test system: normal human bronchial epithelial cells (NHBE); assay: Cellular cytotoxicity by MTT in normal human bronchial epithelial cells; conditions: for CC50: read-out: CC50 NHBE, MTT
[4] = test system: Vero E6 cells; assay: Cellular cytotoxicity by MTT in Vero E6 cells; conditions: for CC50: read-out: CC50 Vero E6, absence of virus; for cytotoxicity: Vero E6 and NHBE cells
[5] = test system: infectious SARS-CoV-2 (isolate USA-WA1/2020); assay: Antiviral assay, cytopathic effect by MTT in Vero E6 cells; format: cell-based; conditions: for EC50: Severe acute respiratory syndrome coronavirus 2, Vero C1008
[6] = test system: infectious SARS-CoV-2 (isolate USA-WA1/2020); assay: microbe, parasite or virus in culture; format: cell-based; conditions: for EC50: Severe acute respiratory syndrome coronavirus 2, Vero C1008, Vero E6 cells, read-out: EC50 Plaque
[7] = read-out: IC50 (μM), inhibition of SARS-Cov-2 M^pro, Table 4
[8] = combination with remdesivir, MacSynergy II
[9] = Vero E6 cells, MOI 0.01, 72 h, NA = not active, read-out: EC50 MTT
[10] = read-out: IC50 (μM), inhibition of SARS-CoV-2 M^pro, Table 1, 100 nM M^pro, triplicate, perampanel: fluorescence of compound interfered with assay
[11] = footnote b: drop in viral titer/incomplete inhibition
[12] = IC50 (μM), inhibition of SARS-Cov-2 M^pro, Table 4

N#Cc1ccccc1-c1cc(-c2cc(Cl)cc(Cl)c2)c(=O)n(-c2cccnc2)c1 [Compound 9, 2-(3-(3,5-Dichlorophenyl)-2-oxo-2H-[1,3′-bipyridin]-5-yl)benzonitrile]
IC50 [1]: 0.0938 µM | combination behavior ([1]; combination with EIDD-1931): synergistic effect | IC50 ([2]; IC50): 4.2 µM | IC50 [2, 7]: 4.02 ± 1.36 µM

CCCOc1cc(Cl)cc(-c2cc(-c3ccccc3C#N)cn(-c3cccnc3)c2=O)c1 [Compound 13, 2-(3-(3-Chloro-5-propoxyphenyl)-2-oxo-2H-[1,3′-bipyridin]-5-yl)benzonitrile]
CC50 [3]: 20 ± 2 µM | combination behavior ([1]; combination with remdesivir): statistically significant synergistic behavior | antagonism volume [1, 8]: 0 μM^2% | mean synergy volume [1, 8]: 30.8 μM^2% | CC50 [4]: 22 µM | factor of improvement in potency over 9 ([2]; ratio of IC50 values): ca. 30 | EC50 [5, 9]: 2.5 ± 0.7 µM | EC50 ([5]; read-out: EC50, MTT assay): 2.5 µM

Cc1ccccc1COc1cc(Cl)cc(-c2cc(-c3c[nH]c(=O)[nH]c3=O)cn(-c3cccnc3)c2=O)c1 [Compound 31, 5-(3-(3-Chloro-5-((2-methylbenzyl)oxy)phenyl)-2-oxo-2H-[1,3′-bipyridin]-5-yl)pyrimidine-2,4(1H,3H)-dione]
IC50 ([2]; IC50): 0.11 µM | IC50 [2, 10]: 0.1 ± 0.007 µM

Cc1cccc(COc2cc(Cl)cc(-c3cc(-c4c[nH]c(=O)[nH]c4=O)cn(-c4cccnc4)c3=O)c2)c1 [Compound 32, 5-(3-(3-Chloro-5-((3-methylbenzyl)oxy)phenyl)-2-oxo-2H-[1,3′-bipyridin]-5-yl)pyrimidine-2,4(1H,3H)-dione]
IC50 ([2]; IC50): 0.1 µM | IC50 [2, 10]: 0.11 ± 0.035 µM | IC50 [2, 7]: 0.11 ± 0.035 µM

CCNC(=O)COc1cc(Cl)cc(-c2cc(-c3ccccc3C#N)cn(-c3cccnc3)c2=O)c1 [Compound 33]
IC50 [2, 7]: 0.5 to 1 µM

O=c1[nH]cc(-c2cc(-c3cc(Cl)cc(OCc4ccccc4F)c3)c(=O)n(-c3cccnc3)c2)c(=O)[nH]1 [Compound 34, 5-(3-(3-Chloro-5-((2-fluorobenzyl)oxy)phenyl)-2-oxo-2H-[1,3′-bipyridin]-5-yl)pyrimidine-2,4(1H,3H)-dione]
IC50 ([2]; read-out: IC50): 0.018 to 0.037 µM | IC50 [2, 10]: 0.024 ± 0.007 µM | IC50 [2, 7]: 0.024 µM

O=c1[nH]cc(-c2cc(-c3cc(Cl)cc(OCc4cccc(F)c4)c3)c(=O)n(-c3cccnc3)c2)c(=O)[nH]1 [Compound 35, 5-(3-(3-Chloro-5-((3-fluorobenzyl)oxy)phenyl)-2-oxo-2H-[1,3′-bipyridin]-5-yl)pyrimidine-2,4(1H,3H)-dione]
IC50 ([2]; read-out: IC50): 0.018 to 0.037 µM | IC50 [2, 7]: 0.037 µM

O=c1[nH]cc(-c2cc(-c3cc(Cl)cc(OCc4c(F)cccc4F)c3)c(=O)n(-c3cccnc3)c2)c(=O)[nH]1 [Compound 36, 5-(3-(3-Chloro-5-((2,6-difluorobenzyl)oxy)phenyl)-2-oxo-2H-[1,3′-bipyridin]-5-yl)pyrimidine-2,4(1H,3H)-dione]
IC50 ([2]; read-out: IC50): 0.018 to 0.037 µM | IC50 [2, 7]: 0.036 µM

O=c1[nH]cc(-c2cc(-c3cc(Cl)cc(OCc4ccccc4Cl)c3)c(=O)n(-c3cccnc3)c2)c(=O)[nH]1 [Compound 37, 5-(3-(3-Chloro-5-((2-chlorobenzyl)oxy)phenyl)-2-oxo-2H-[1,3′-bipyridin]-5-yl)pyrimidine-2,4(1H,3H)-dione]
CC50 [3]: 2 ± 0.1 µM | cytotoxicity [4]: greatest cytotoxicity | CC50 [4]: 1.7 ± 0.9 µM | antiviral activity in the viral plaque assay [6]: showed activity | EC50 [6, 11]: 11.3 µM | antiviral activity in the MTT assay [5]: lacked antiviral activity

N#Cc1ccccc1-c1cc(-c2cc(Cl)cc(OCC3CC3)c2)c(=O)n(-c2cccnc2)c1 [Compound 39, 2-(3-(3-Chloro-5-(cyclopropylmethoxy)phenyl)-2-oxo-2H-[1,3′-bipyridin]-5-yl)benzonitrile]
CC50 [3]: > 100 µM | cytotoxicity [4]: no cytotoxicity to the highest concentration tested (100 μM) | CC50 [4]: > 100 µM | EC50 [5, 9]: 2 ± 0.7 µM | EC50 ([5]; read-out: EC50, MTT assay): ~1 µM

O=c1[nH]cc(-c2cc(-c3cc(Cl)cc(OCC4CC4)c3)c(=O)n(-c3cccnc3)c2)c(=O)[nH]1 [Compound 40, 5-(3-(3-Chloro-5-(cyclopropylmethoxy)phenyl)-2-oxo-2H-[1,3′-bipyridin]-5-yl)pyrimidine-2,4(1H,3H)-dione]
IC50 [2, 12]: ~290 µM

O=c1[nH]cc(-c2cc(-c3cc(Cl)cc(OCC4CC4)c3)c(=O)n(-c3cccnc3)c2)c(=O)[nH]1 [Compound 43]
IC50 [2, 7]: 0.037 ± 0.004 µM

O=c1[nH]cc(-c2cc(-c3cc(Cl)c(F)c(OCc4ccccc4Cl)c3)c(=O)n(-c3cccnc3)c2)c(=O)[nH]1 [Compound 44, 5-(3-(3-Chloro-5-((2-chlorobenzyl)oxy)-4-fluorophenyl)-2-oxo-2H-[1,3′-bipyridin]-5-yl)pyrimidine-2,4(1H,3H)-dione]
CC50 [3]: 3.5 ± 1 µM | cytotoxicity [4]: greatest cytotoxicity | CC50 [4]: 1.15 ± 0.5 µM | antiviral activity in the viral plaque assay [6]: showed activity | EC50 ([6]; MOI 0.01): 0.84 µM | antiviral activity in the MTT assay [5]: lacked antiviral activity

O=c1[nH]cc(-c2cc(-c3cc(F)c(F)c(OCc4ccccc4F)c3)c(=O)n(-c3cccnc3)c2)c(=O)[nH]1 [Compound 45]
IC50 [2, 7]: 0.03 ± 0.004 µM

O=c1[nH]cc(-c2cc(-c3cc(Cl)cc(OCc4ccccc4)c3)c(=O)n(-c3cccnc3)c2)c(=O)[nH]1 [Compound 46, 5-(3-(3-(Benzyloxy)-5-chlorophenyl)-2-oxo-2H-[1,3′-bipyridin]-5-yl)pyrimidine-2,4(1H,3H)-dione]
CC50 [3]: 17.5 ± 5.5 µM | CC50 [4]: 12.3 ± 7 µM | antiviral activity in the viral plaque assay [6]: antiviral activity was found | EC50 [6, 11]: 3.2 µM

N#Cc1ccccc1-c1cc(-c2cc(Cl)cc(OCCC(F)(F)F)c2)c(=O)n(-c2cccnc2)c1 [Compound 47, 2-(3-(3-Chloro-5-(3,3,3-trifluoropropoxy)phenyl)-2-oxo-2H-[1,3′-bipyridin]-5-yl)benzonitrile]
cytotoxicity towards the NHBE cells ([3]; compared with 39): more cytotoxic | CC50 [3]: 25 ± 5 µM | CC50 [4]: 22 ± 8 µM

O=c1[nH]cc(-c2cc(-c3cc(Cl)cc(OCc4ccsc4Cl)c3)c(=O)n(-c3cccnc3)c2)c(=O)[nH]1 [Compound 49]
IC50 [2, 7]: 0.0265 ± 0.004 µM

O=c1nc(NO)ccn1[C@@H]1O[C@H](CO)C(O)[C@@H]1O (some centres unmarked) [EIDD-1931, reference compound]
IC50 [1]: 2.23 µM

N#Cc1ccccc1-c1cc(-c2ccccn2)cn(-c2ccccc2)c1=O [Perampanel, perampanel, reference compound]
IC50 ([2]; IC50): 100 to 250 µM and > 100 µM | IC50 ([2]; IC50 (μM), inhibition of SARS-CoV-2 M^pro, Table 1, 100 nM M^pro, triplicate, perampanel: fluorescence of compound interfered with assay): 100 to 250 µM | IC50 [2, 12]: 100 µM

CCC(CC)COC(=O)[C@H](C)N[P@](=O)(OC[C@H]1O[C@@](C#N)(c2ccc3c(N)ncnn23)[C@H](O)[C@@H]1O)Oc1ccccc1 [remdesivir, reference compound]
CC50 [3]: 41 ± 2 µM | CC50 [4]: 72 ± 28 µM

— patent US20240092759A1, “Non-Covalent Inhibitors of the Main Protease of SARS-CoV-2 and Methods of Use” (YALE UNIVERSITY, priority 2021, published 2024)
